According to patent US20230322771A1, “HETEROCYCLIC GLP-1 AGONISTS” (Gasherbrum Bio, Inc., priority 2020, published 2023):

target: GLP-1 Receptor (Homo sapiens, UniProt P43220); assay: GLP-1R agonist cAMP stimulation assay (HEK293/GLP1R/CRE-LUC cells, HTRF cAMP dynamic 2 kit); type: cell-based; settings: HEK293/CRE-Luc cell line (HDB) stably expressing GLP-1 Receptor; 30 min incubation at 37° C.; read-out: GLP1R cAMP Stimulation DR: EC50 (nM) [Species: Human, Assay Cell Line: HDB]
Protocol: Activation of GLP-1 receptor is known to stimulate cyclic AMP (cAMP) production in cells which indicates primary coupling to the Gαs subunit of the G protein heterotrimeric complex.
To optimize functional activity directed toward Gαs coupling, a HEK293/CRE-Luc cell line developed by HDB stably expressing the GLP-1 Receptor was used. 200× concentration of compound working solutions were prepared (Agilent Technologies Bravo) with ½ log serial dilution in 384-well Echo LDV plate (Labcyte, Cat #LP-0200). 50 nL/well 200× concentration of compound working solutions were moved to 384-well white low volume plate (Greiner, Cat #784075) using Labcyte ECHO550. 1×10^5 cells/mL HEK293/GLP1R/CRE-LUC(HD Biosciences) cell suspensions prepared with assay buffer[DPBS containing 0.5 mM IBMX(Sigma, Cat #15879) and 0.1% BSA(GENVIEW, Cat #FA016-100 g)], 10 uL cell suspensions were added to each well of previous generated assay plate which already contains 50 nl compound at 200× concentration using ThermoFisher Multidrop Combi(1000 cells/well). Seal the plate and incubate at 37° C. with 5% CO2 for 30 min.
After incubation the cAMP assay signal was generated using cAMP dynamic 2 Kit (Cisbio). 5 μL cAMP-d2 working solution was added to each well, followed with 5 μL Anti-cAMP antibody-cryptate working solution added to each well using ThermoFisher Multidrop Combi. Incubate at room temperature for 1 hour protected from light. Read the fluorescence at 665 and 615 nm with Reader PerkinElmer EnVision.
% Activity=100%×(mean RLU of test sample−mean RLU of vehicle control)/(mean RLU of MAX control−mean RLU of vehicle control))

Chain of GLP-1 Receptor (P43220 24-463): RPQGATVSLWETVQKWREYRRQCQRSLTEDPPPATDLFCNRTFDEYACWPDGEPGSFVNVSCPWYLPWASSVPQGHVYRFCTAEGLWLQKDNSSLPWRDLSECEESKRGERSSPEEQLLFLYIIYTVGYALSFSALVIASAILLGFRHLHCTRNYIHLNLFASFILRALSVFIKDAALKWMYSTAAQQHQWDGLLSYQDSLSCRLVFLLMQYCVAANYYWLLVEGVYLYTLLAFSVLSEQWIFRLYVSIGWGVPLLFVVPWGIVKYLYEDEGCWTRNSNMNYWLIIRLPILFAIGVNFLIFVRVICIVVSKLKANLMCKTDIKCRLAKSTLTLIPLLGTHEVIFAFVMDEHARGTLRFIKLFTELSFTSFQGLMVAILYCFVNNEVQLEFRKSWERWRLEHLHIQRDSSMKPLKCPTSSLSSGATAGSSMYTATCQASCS

EC50 [nM] | Compound
0.7 | Cc1cc(-n2nc3c(c2-n2ccn(-c4cccc(N5CCCS5(=O)=O)c4)c2=O)[C@H](C)N(C(=O)c2cc4cc(C5CCOCC5)ccc4n2[C@@]2(c4noc(=O)[nH]4)C[C@@H]2C)CC3)cc(C)c1F [Compound 106a, 3-((1S,2S)-1-(2-((S)-3-(3-(3-(1,1-dioxidoisothiazolidin-2-yl)phenyl)-2-oxo-2,3-dihydro-1H-imidazol-1-yl)-2-(4-fluoro-3,5-dimethylphenyl)-4-methyl-4,5,6,7-tetrahydro-2H-pyrazolo[4,3-c]pyridine-5-carbonyl)-5-(tetrahydro-2H-pyran-4-yl)-1H-indol-1-yl)-2-methylcyclopropyl)-1,2,4-oxadiazol-5(4H)-one]
0.18 | Cc1cc(-n2nc3c(c2-n2ccn(-c4ccc(N5CCCS5(=O)=O)cc4)c2=O)[C@H](C)N(C(=O)c2cc4cc(C5CCOCC5)ccc4n2[C@@]2(c4noc(=O)[nH]4)C[C@@H]2C)CC3)cc(C)c1F [Compound 107a, 3-((1S,2S)-1-(2-((S)-3-(3-(4-(1,1-dioxidoisothiazolidin-2-yl)phenyl)-2-oxo-2,3-dihydro-1H-imidazol-1-yl)-2-(4-fluoro-3,5-dimethylphenyl)-4-methyl-4,5,6,7-tetrahydro-2H-pyrazolo[4,3-c]pyridine-5-carbonyl)-5-(tetrahydro-2H-pyran-4-yl)-1H-indol-1-yl)-2-methylcyclopropyl)-1,2,4-oxadiazol-5(4H)-one]
0.043 | Cc1cc(-n2nc3c(c2-n2ccn(-c4ccc(S(=O)(=O)C5CC5)cc4)c2=O)[C@H](C)N(C(=O)c2cc4cc(C5CCOCC5)ccc4n2[C@@]2(c4noc(=O)[nH]4)C[C@@H]2C)CC3)cc(C)c1F [Compound 108a, 3-((1S,2S)-1-(2-((S)-3-(3-(4-(cyclopropylsulfonyl)phenyl)-2-oxo-2,3-dihydro-1H-imidazol-1-yl)-2-(4-fluoro-3,5-dimethylphenyl)-4-methyl-4,5,6,7-tetrahydro-2H-pyrazolo[4,3-c]pyridine-5-carbonyl)-5-(tetrahydro-2H-pyran-4-yl)-1H-indol-1-yl)-2-methylcyclopropyl)-1,2,4-oxadiazol-5(4H)-one]
0.24 | Cc1cc(-n2nc3c(c2-n2ccn(-c4cccc(CCS(C)(=O)=O)c4)c2=O)[C@H](C)N(C(=O)c2cc4cc(C5CCOCC5)ccc4n2[C@@]2(c4noc(=O)[nH]4)C[C@@H]2C)CC3)cc(C)c1F [Compound 109a, 3-((1S,2S)-1-(2-((S)-2-(4-fluoro-3,5-dimethylphenyl)-4-methyl-3-(3-(3-(2-(methylsulfonyl)ethyl)phenyl)-2-oxo-2,3-dihydro-1H-imidazol-1-yl)-4,5,6,7-tetrahydro-2H-pyrazolo[4,3-c]pyridine-5-carbonyl)-5-(tetrahydro-2H-pyran-4-yl)-1H-indol-1-yl)-2-methylcyclopropyl)-1,2,4-oxadiazol-5(4H)-one]
0.05 | Cc1cc(-n2nc3c(c2-n2ccn(-c4ccc(CCS(C)(=O)=O)cc4F)c2=O)[C@H](C)N(C(=O)c2cc4cc(C5CCOCC5)ccc4n2[C@@]2(c4noc(=O)[nH]4)C[C@@H]2C)CC3)cc(C)c1F [Compound 110a, 3-((1S,2S)-1-(2-((S)-2-(4-fluoro-3,5-dimethylphenyl)-3-(3-(2-fluoro-4-(2-(methylsulfonyl)ethyl)phenyl)-2-oxo-2,3-dihydro-1H-imidazol-1-yl)-4-methyl-4,5,6,7-tetrahydro-2H-pyrazolo[4,3-c]pyridine-5-carbonyl)-5-(tetrahydro-2H-pyran-4-yl)-1H-indol-1-yl)-2-methylcyclopropyl)-1,2,4-oxadiazol-5(4H)-one]

More lines, now with the values behind:

Compound | EC50 [nM]
Cc1cc(-n2nc3c(c2-n2ccn(-c4cccc(CS(C)(=O)=O)c4)c2=O)[C@H](C)N(C(=O)c2cc4cc(C5CCOCC5)ccc4n2[C@@]2(c4noc(=O)[nH]4)C[C@@H]2C)CC3)cc(C)c1F [Compound 102a, 3-((1S,2S)-1-(2-((S)-2-(4-fluoro-3,5-dimethylphenyl)-4-methyl-3-(3-(3-((methylsulfonyl)methyl)phenyl)-2-oxo-2,3-dihydro-1H-imidazol-1-yl)-4,5,6,7-tetrahydro-2H-pyrazolo[4,3-c]pyridine-5-carbonyl)-5-(tetrahydro-2H-pyran-4-yl)-1H-indol-1-yl)-2-methylcyclopropyl)-1,2,4-oxadiazol-5(4H)-one] | 0.27
CCS(=O)(=O)Cc1ccc(-n2ccn(-c3c4c(nn3-c3cc(C)c(F)c(C)c3)CCN(C(=O)c3cc5cc(C6CCOCC6)ccc5n3[C@@]3(c5noc(=O)[nH]5)C[C@@H]3C)[C@H]4C)c2=O)cc1 [Compound 103a, 3-((1S,2S)-1-(2-((S)-3-(3-(4-((ethylsulfonyl)methyl)phenyl)-2-oxo-2,3-dihydro-1H-imidazol-1-yl)-2-(4-fluoro-3,5-dimethylphenyl)-4-methyl-4,5,6,7-tetrahydro-2H-pyrazolo[4,3-c]pyridine-5-carbonyl)-5-(tetrahydro-2H-pyran-4-yl)-1H-indol-1-yl)-2-methylcyclopropyl)-1,2,4-oxadiazol-5(4H)-one] | 0.065
CNS(=O)(=O)c1ccc(-n2ccn(-c3c4c(nn3-c3cc(C)c(F)c(C)c3)CCN(C(=O)c3cc5cc(C6CCOCC6)ccc5n3[C@@]3(c5noc(=O)[nH]5)C[C@@H]3C)[C@H]4C)c2=O)cc1 [Compound 104a, 4-(3-((S)-2-(4-fluoro-3,5-dimethylphenyl)-4-methyl-5-(1-((1S,2S)-2-methyl-1-(5-oxo-4,5-dihydro-1,2,4-oxadiazol-3-yl)cyclopropyl)-5-(tetrahydro-2H-pyran-4-yl)-1H-indole-2-carbonyl)-4,5,6,7-tetrahydro-2H-pyrazolo[4,3-c]pyridin-3-yl)-2-oxo-2,3-dihydro-1H-imidazol-1-yl)-N-methylbenzenesulfonamide] | 0.081
Cc1cc(-n2nc3c(c2-n2ccn(-c4ccc(NS(C)(=O)=O)cc4)c2=O)[C@H](C)N(C(=O)c2cc4cc(C5CCOCC5)ccc4n2[C@@]2(c4noc(=O)[nH]4)C[C@@H]2C)CC3)cc(C)c1F [Compound 105a, N-(4-(3-((S)-2-(4-fluoro-3,5-dimethylphenyl)-4-methyl-5-(1-((1S,2S)-2-methyl-1-(5-oxo-4,5-dihydro-1,2,4-oxadiazol-3-yl)cyclopropyl)-5-(tetrahydro-2H-pyran-4-yl)-1H-indole-2-carbonyl)-4,5,6,7-tetrahydro-2H-pyrazolo[4,3-c]pyridin-3-yl)-2-oxo-2,3-dihydro-1H-imidazol-1-yl)phenyl)methanesulfonamide] | 0.036

same assay, conditions: HEK293/CRE-Luc cell line (HDB) stably expressing GLP-1 Receptor; 30 min incubation at 37° C.; read-out: GLP1R cAMP Stimulation DR: pEC50 (M) [Species: Human, Assay Cell Line: HDB] (converted)

EC50 [nM] | Compound
0.0316 | Cc1cc(-n2nc3c(c2-n2ccn(-c4ccc(CS(C)(=O)=O)cc4)c2=O)[C@H](C)N(C(=O)c2cc4cc(C5CCOCC5)ccc4n2[C@@]2(c4noc(=O)[nH]4)C[C@@H]2C)CC3)cc(C)c1F [Compound 101a, 3-((1S,2S)-1-(2-((S)-2-(4-fluoro-3,5-dimethylphenyl)-4-methyl-3-(3-(4-((methylsulfonyl)methyl)phenyl)-2-oxo-2,3-dihydro-1H-imidazol-1-yl)-4,5,6,7-tetrahydro-2H-pyrazolo[4,3-c]pyridine-5-carbonyl)-5-(tetrahydro-2H-pyran-4-yl)-1H-indol-1-yl)-2-methylcyclopropyl)-1,2,4-oxadiazol-5(4H)-one]
0.17 | Cc1cc(-n2nc3c(c2-n2ccn(-c4ccc(N5CCCS5(=O)=O)cc4)c2=O)[C@H](C)N(C(=O)c2cc4cc(C5CCOCC5)ccc4n2[C@@]2(c4noc(=O)[nH]4)C[C@@H]2C)CC3)cc(C)c1F [Compound 107a, 3-((1S,2S)-1-(2-((S)-3-(3-(4-(1,1-dioxidoisothiazolidin-2-yl)phenyl)-2-oxo-2,3-dihydro-1H-imidazol-1-yl)-2-(4-fluoro-3,5-dimethylphenyl)-4-methyl-4,5,6,7-tetrahydro-2H-pyrazolo[4,3-c]pyridine-5-carbonyl)-5-(tetrahydro-2H-pyran-4-yl)-1H-indol-1-yl)-2-methylcyclopropyl)-1,2,4-oxadiazol-5(4H)-one]
